This is an account of results in US12565495B2, “VMAT2 inhibitor and preparation method therefor and application thereof” (Luye Innomind Pharma Shijiazhuang Co., Ltd., priority 2019, dated 2026).

One data set has as its target VMAT2 (Rattus norvegicus (Rat), UniProt Q01827). The experiment in a line: Radioactivity detection of binding to VMAT2 in rats ([3H]DHTBZ binding assay, rat cerebral vesicle membrane). Conditions: Table 25. The method, then:
I. Radioactivity Detection of Activity of Compounds Binding to VMAT2 in Rats (Binding assay)
To determine the IC50 and Ki values of the binding of various compounds to VMAT2 in rats and to evaluate the affinity of compounds for VMAT2.
Male Wistar rat, weighing 175±25 g, was selected and the whole brain (without the cerebellum) of the rat was isolated surgically and placed into a pre-chilled sucrose solution (20 mL, 0.32 M) and homogenized by a Teflon pestle homogenizer. […] The supernatant was discarded and the precipitate obtained was placed in ice cold MilliQ water (18 mL, Millipore Corporation, Billerica, MA), incubated for 5 minutes and subjected to osmotic shock to shatter cell membrane. Then osmolarity was restored by addition of HEPES solution (25 mM, 2 mL) and potassium tartrate solution (100 mM, 2 mL). The resulting sample was centrifuged at 20,000 g for 20 min at 4° C. The supernatant was aspirated and MgSO4 solution (1 mM, 20 μL) was added. […] The precipitate was collected and resuspended in ice cold assay buffer (25 mM HEPES, 100 mM potassium tartrate, 5 mM MgSO4, 0.1 mM EDTA and 0.05 mM EGTA, pH 7.5) to obtain a vesicle suspension.
After completion of the incubation, the reaction solution was filtered (bacteria filter and collector, PerkinElmer Life and Analytical Sciences) to a filter plate and subsequently, the filter membrane was washed with 350 μL of ice-cold buffer (25 mM HEPES, 100 mM potassium tartrate, 5 mM MgSO4 and 10 mM NaCl, pH 7.5) five times. The filter plate was dried and had the bottom sealed. 40 μL of scintillation cocktail (MicroScint 20; PerkinElmer Life and Analytical Sciences) was added to each well. Radioactivity on the filter was determined by liquid scintillation spectrometry (TopCount NXT; PerkinElmer Life and Analytical Sciences).
Based on the radioactivity assay results above, IC50 and Ki were calculated. IC50 was calculated by a non-linear, least squares regression analysis using MathIQ™ (ID Business Solutions Ltd., UK). Ki values were calculated using the equation of Cheng and Prusoff (Cheng, Y., Prusoff, W. H., Biochem. Pharmacol. 22:3099-3108, 1973). Ki values were calculated in combination with the IC50 of the test compound and the historical KD in the radioactivity detection method of Eurofins Panlabs company.

Data set [1] can be described thus: Liver microsome incubation test, rat. To be noted: rat liver microsomes 0.5 mg/mL, 1 μM compound, NADPH, 37° C.
Procedure: (§1) Incubation: 100 μL of an incubation system included: liver microsomes (human, rat, mouse, monkey or dog) (0.5 mg/mL), sodium phosphate buffer (100 mM), and magnesium chloride (10 mM). […] After pre-incubation of the systems at 37° C. for 3 min, NADPH was added to a final concentration of 1 mM. The reaction was started. […] Each sample at each time point was processed parallelly in duplicate and a blank control group without coenzymes and a positive control group were provided.
(§2) A certain amount of internal standard was added to the sample following termination with acetonitrile. […] Relative remaining amount was taken as the ordinate and time as the abscissa.
The test system of data set [2] is SD rat autonomous activity. The experiment in a line: SD rat autonomous activity model (total movement distance in open field, TopScan). Conditions: SD rats, 0 hr to 1 hr post-dose. In kind it is in vivo. The method, then: SD rat autonomous activity models were used in the study.
• 2.1 Test animals: 32 SD rats, SPF-grade, Male, 5-7 weeks old, weighing: 200-220 g, pre-accustomed for at least 1 week before the test.
Preparation method: An appropriate amount of the medicament was weighed and dissolved with a small amount of DMSO (not more than 1% of the total volume). Then, 20% Solutol was added to obtain the desired medicament concentration and the final concentration of DMSO was <4%.
The rats were put into the detection box, pre-accustomed for 10 min and fasted. Animal grouping and dosing information were detailed in Table 35.
On the day of the test, the animals were accustomed for at least 1 hr in the test room. Rats in each group were given a vehicle or corresponding medicaments, respectively according to the doses in Table 35 in one single gavage and then put into the activity room. […] Rats of a same group should not be put in one same room among the eight activity rooms, and there was at least one rat from the control group in each round of test to prevent mutual interference. At the end of each round of test, the feces were swept out and the activity rooms were cleaned to avoid the influence of irrelevant interfering factors (odor, etc.) on the exercise activities of the rats.
The total movement distances of rats from 2 hr to 3 hr post-dose were recorded and analyzed by using a TopScan monitoring system and the reduction rate (RR) of the total movement distance was calculated, wherein RR=(Control group movement distance-Administration group movement distance)/Control group movement distance*100%.
Test data were expressed as mean±standard error of the mean (MEAN±SEM). Difference between various groups at each time point was compared by using PASW Statistics 18.0 software with one-way analysis of variance (ANOVA).
Animal grouping and dosing information were detailed in […].

Data set [3] can be described thus: Excipient compatibility test (purity after storage with excipients). In kind it is physicochemical. To be noted: for purity change after mixing with excipients: mixed with excipients 1:20, placed open at 60° C. for 5 days. As for the experimental part:
Then the mixture was placed open at 60° C. for 5 days.
Purity detection method: about 35 mg of the sample was weighed precisely and placed in a 25 ml measuring flask. 15 ml of acetonitrile was added to dissolve the sample by ultrasound. Water was used to dilute to a given mark and the mixture was shaken uniformly and used as sample solution to be tested. Determination was carried out based on high performance liquid chromatography, octadecyl silane bonded silica gel was used as the filler (Inerstil ODS-3V, 250 mm×4.6 mm, 5 μm); 10 mmol/L diammonium hydrogen phosphate solution (adjusting the pH value to 6.95±0.05)-acetonitrile (80:20) was used as mobile phase A, acetonitrile was used as mobile phase B, and gradient elution was carried out according to Table 39. The detection wavelength was 282 nm; the column temperature was 35° C.; and the flow rate was 1.0 ml/min. 10 μl of the sample solution to be tested was precisely measured and injected into the liquid chromatograph, and the chromatogram was recorded. Calculation was carried out by the peak area normalization method.

The nature of data set [4]: Distribution test in SD rat brain tissue, gavage 12 μmol/kg (brain concentration, brain/plasma ratio). The format is in vivo. Conditions: SD rats, gavage 12 μmol/kg of compound 21 or VBZ, 2 h post-dose; compound 21 vs VBZ, metabolite compound 11 vs DHTBZ. As for the experimental part: After the rats were sacrificed, the brain tissues were extracted, washed with normal saline and dried with filter paper. Cerebral vessels were stripped and the remaining brain tissues were weighed and stored at −20° C.

Data set [5] in a line: Pharmacokinetic test in SD rats, gavage 10 μmol/kg (plasma concentration-time curves). The format is in vivo. Conditions: male SD rats, FIG. 9. The method, then: Method of Pharmacokinetic Test in SD Rats:
The dosage of administration was 10 μmol/kg. At 0.25, 0.5, 1, 2, 3, 4, 6, 8 and 12 h post-dose, blood samples (about 0.2 mL/time point/rat) were collected to heparinized tubes.

Data set [6] can be described thus: Liver microsome incubation test, dog. Conditions: dog liver microsomes 0.5 mg/mL, 1 μM compound, NADPH, 37° C. In kind it is in vitro ADME.
Procedure: as §1, §2
Data set [7] in a line: Liver microsome incubation test, human. To be noted: human liver microsomes 0.5 mg/mL, 1 μM compound, NADPH, 37° C.
Procedure: as §1, §2
Data set [8] can be described thus: Pharmacokinetic / bioavailability test in SD rats (gavage 5 μmol/kg, intravenous 2 μmol/kg). Conditions: male, rat, plasma, 2 umol/kg.
Procedure: At each corresponding time point post-dose, blood samples (about 1 ml/time point/rat) were collected to heparinized tubes. Within half an hour after collection, the samples were centrifuged to separate the plasma, which was transferred to 1.5 ml EP tubes and stored at −20° C. for detection.
Method for precipitating proteins was used for the pretreatment of the samples: protein precipitation was carried out in 25 μL of plasma by using 200 μL of acetonitrile containing internal standard. After high-speed centrifugation, the supernatant was diluted with water (1:1 (V/V)) and injected for analysis.
Data set [9] can be described thus: 11-P4S crystal forms A/D/E suspension competition test. The format is physicochemical. To be noted: suspension in IPA / IPAc, room temperature to 50° C., 17 hours. The method, then: Then XRPD was carried out on the solid.

Chain of VMAT2 (Q01827 whole entry): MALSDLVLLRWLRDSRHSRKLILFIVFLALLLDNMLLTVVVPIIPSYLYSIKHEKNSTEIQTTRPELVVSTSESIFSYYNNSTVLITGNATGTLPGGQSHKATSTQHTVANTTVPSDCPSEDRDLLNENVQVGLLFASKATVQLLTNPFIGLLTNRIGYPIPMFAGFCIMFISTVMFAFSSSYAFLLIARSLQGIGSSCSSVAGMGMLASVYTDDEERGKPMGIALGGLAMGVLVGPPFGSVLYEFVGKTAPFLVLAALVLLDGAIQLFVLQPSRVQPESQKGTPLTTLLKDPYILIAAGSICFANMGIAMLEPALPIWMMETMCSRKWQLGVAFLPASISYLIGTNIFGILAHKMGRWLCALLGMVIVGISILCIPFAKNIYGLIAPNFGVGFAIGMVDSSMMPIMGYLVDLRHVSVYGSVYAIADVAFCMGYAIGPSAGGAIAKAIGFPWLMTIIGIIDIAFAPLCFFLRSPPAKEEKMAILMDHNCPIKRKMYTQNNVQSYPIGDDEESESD

With `CCCOc1cc2c(cc1OCC)CCN1CC(CC(C)C)C(O)CC21` (centres unmarked) [Comparative Example 41, reference compound], at VMAT2, the IC50 amounted to 280 nM.
For the molecule `COc1cc2c(cc1OCCCF)CCN1CC(CC(C)C)C(O)CC21` (centres unmarked) [Comparative Example 44, reference compound], the “Elimination half-life (t1/2) in liver microsomes” value (shortened to “Elimination half-life”) in data set [1] was “~ (the data showed that the metabolism was stable and the rate of the original compound left was greater than 80% after an incubation of 60 min.)”.
In the case of `COc1cc2c(cc1OCC(F)(F)F)CCN1C[C@@H](CC(C)C)[C@H](O)C[C@H]21` [Compound 11-P4], the “movement distance (rat autonomous activity)” value in data set [2] (1.25 μmol/kg) was 9313±1213 mm; in data set [2] (2.5 μmol/kg) it was 5959±1615 mm; in [2] (5.0 μmol/kg), 1216±429.9 mm; in data set [2] (10.0 μmol/kg) it was 1355±524.1 mm. Besides, the “purity change after mixing with excipients” value in data set [3] was “purity dropped obviously”.
For the molecule `COc1cc2c(cc1OCC(F)(F)F)CCN1CC(CC(C)C)C(O)CC21` (centres unmarked) [Compound 11], the “concentration in brain tissue compared to VBZ and DHTBZ” value in data set [4] is on record as “significantly higher”. For the same molecule, the “exposure compared to Comparative Example 44 compound and DHTBZ” value in data set [5] is “higher exposure”. The “Elimination half-life” value in data set [1] is “~ (the data showed that the metabolism was stable and the rate of the original compound left was greater than 80% after an incubation of 60 min.)”; in [6], “~ (the data showed that the metabolism was stable and the rate of the original compound left was greater than 80% after an incubation of 60 min.)”.
For `COc1cc2c(cc1OCC(F)F)CCN1CC(CC(C)C)C(O)CC21` (centres unmarked) [Compound 12], the “Elimination half-life” value in data set [7] was “~ (the data showed that the metabolism was stable and the rate of the original compound left was greater than 80% after an incubation of 60 min.)”; in [1], “~ (the data showed that the metabolism was stable and the rate of the original compound left was greater than 80% after an incubation of 60 min.)”; in data set [6], “~ (the data showed that the metabolism was stable and the rate of the original compound left was greater than 80% after an incubation of 60 min.)”.
In the case of `COc1cc2c(cc1OCCCC(F)(F)F)CCN1CC(CC(C)C)C(O)CC21` (centres unmarked) [Compound 13], the “Elimination half-life” value was “~ (the data showed that the metabolism was stable and the rate of the original compound left was greater than 80% after an incubation of 60 min.)” in data set [1]; “~ (the data showed that the metabolism was stable and the rate of the original compound left was greater than 80% after an incubation of 60 min.)” in [6].
Turning to `CCOc1cc2c(cc1OC)C1CC(O)C(CC(C)C)CN1CC2` (centres unmarked) [Compound 16], the IC50 on VMAT2 came to 12.9 nM. For the same molecule, the “Elimination half-life” value in data set [1] was “~ (the data showed that the metabolism was stable and the rate of the original compound left was greater than 80% after an incubation of 60 min.)”.
Consider `COCCCOc1cc2c(cc1OC)C1CC(O)C(CC(C)C)CN1CC2` (centres unmarked) [Compound 17], for which the IC50 on VMAT2 was 58 nM.
Still for that read-out and setting: the figure for `CCCOc1cc2c(cc1OC)C1CC(O)C(CC(C)C)CN1CC2` (centres unmarked) [Compound 20] is 4.9 nM.
As to `COc1cc2c(cc1OCC(F)(F)F)CCN1CC(CC(C)C)C(OC(=O)[C@@H](N)C(C)C)CC21` (some centres unmarked) [Compound 21], the “concentration in brain tissue compared to VBZ and DHTBZ” value in [4] is “significantly higher”.
`COc1cc2c(cc1OC)[C@H]1C[C@@H](OC(=O)[C@@H](N)C(C)C)[C@H](CC(C)C)CN1CC2` [VBZ, valbenazine] had a half-life in data set [8] of 1.67 h.
With `COc1cc2c(cc1OCC(F)(F)F)CCN1C[C@@H](CC(C)C)[C@H](O)C[C@H]21.Cc1ccc(S(=O)(=O)O)cc1` [crystal form A of 11-P4S], the “thermodynamic stability of crystal form” value in [9] is “most thermodynamically stable crystal form”. Besides, the purity in [3] (API alone, 0 d) is 99.70%; in data set [3] (API alone, high temperature (60° C.), open, 5 d), 99.69%; in data set [3] (mixed with MCC 1:20, high temperature (60° C.), open, 5 d), 99.26%; in data set [3] (mixed with magnesium stearate 1:20, high temperature (60° C.), open, 5 d), 99.68%; in [3] (mixed with talc powder 1:20, high temperature (60° C.), open, 5 d), 99.68%. In data set [3], the “purity change after mixing with excipients” value is listed as “no obvious change”.
